Entries after “also recorded” stand apart in the source; their conditions may differ. Some results are limits rather than exact numbers.

In test [1] the target is T1, HNRPK Y72 (Homo sapiens, UniProt P61978).
T1 construct: liganded site Y72
Description: Competitive ABPP SILAC LC-MS/MS chemical proteomics, HNRPK Y72. The test is classed as cell-based. On the procedure: Preparation of SILAC proteomes for LC-MS/MS analysis. SILAC cell proteomes were fractionated to collect the supernatant and normalized to 2.3 mg/mL in PBS. ‘Heavy’ and ‘light’ proteomes were aliquoted (427 μL) and probe-modified proteins were conjugated to desthiobiotin-PEG-3-azide using copper-catalyze azide-alkyne cycloaddition, trypsinized into peptides using Trypsin/Lys-C Mix (Catalog No. V5071; Promega Corporation, Madison, Wisconsin, United States of America), enriched using PIERCE™ Avidin Agarose brand beads (Catalog No. 20219; Thermo Fisher Scientific Inc., Waltham, Massachusetts. United States of America), and prepared for nano-electrospray ionization-LC-MS/MS analysis as previously described in Hahm et al., 2020.
Data Analysis—Chemical Proteomics. Identification and analysis of peptides and proteins using LC-MS was accomplished using bioinformatics software and quality control parameter protocols as previously described in Hahm et al., 2020.
We performed quantitative liquid-chromatography tandem mass spectrometry (LC-MS/MS) chemical proteomic studies to identify the target protein and binding site(s) of SuTEx fragments with RNP granule modulating activity. […]
We detected ~8,700 probe-modified sites (Tyr and Lys) in our aggregate HeLa and HEK293T chemical proteomic analyses. […]

Test [2] relates to stress granules (α-G3BP1) in HeLa cells. Description: Dose-dependent inhibition of induced stress granules in HeLa cells by immunofluorescence. In kind it is cell-based. To be noted: 2 h. On the procedure:
FIGS. 15A-15C. […] (FIG. 15B) Box and whisker plot of the number of SGs per cell from immunofluorescence images of G3BP1+SuTEx fragment ligand treatments in [COMPOUND LEFT OUT]-stressed cells from FIG. 15A (“x” indicates the mean; the center line is the median). […] A two-sample Student's t-test was performed for statistical comparison. (FIG. 15C) The average number of SGs per cell from FIG. 15B was plotted as a function of HHS-166 concentrations from cellular treatments to estimate the EC50 (~8 μM) for [COMPOUND LEFT OUT]-induced SG inhibition in situ. Data shown are representative of n=2 biologically independent replicates.
Immunofluorescence. Immunofluorescence (IF) of HEK293T cells was performed as previously described in Ciancone et al., 2022. HeLa cells were seeded at 9.0×10^4 in a 24-well plate with 12-mm glass coverslips. The next day, the cells were treated with 25 μM SuTEx probe for 2 hours in DMEM medium without FBS. The cells were then treated with 75 μM NaAsO2 for 30 minutes and fixed with 3% paraformaldehyde in PBS for 15 minutes at room temperature (RT) and washed with PBS twice. The fixed cells were permeabilized with PBST (0.1% Triton X-100) for 15 minutes at room temperature and blocked with 5% goat serum in PBST for 30 minutes at RT. The cells were incubated with anti-G3BP1 antibody H-10 (Catalog No. sc-365338 at 1:200 dilution; Santa Cruz Biotechnology, Inc., Dallas, Texas, United States of America) for 2 hours at RT and washed with PBST (0.1% Tween-20) for 5 minutes three times. Next, cells were incubated with goat anti-mouse Alexa 594 antibody (Catalog No. 115-585-003 at 1:800 dilution; Jackson ImmunoResearch, West Grove, Pennsylvania, United States of America) for 30 minutes at RT. […] A CellProfiler pipeline was developed to quantify the number of stress granules under each condition. Briefly, cells were recognized as blue^+ (nuclei) red^+ (G3BP1) objects, and the red^+ granules that meet the shape and size threshold were identified and counted. Cells on the border of linages were excluded from the analysis for more accurate quantification.

One may read the EC50 as the concentration needed to bring the measured effect to its halfway point. Consider `COc1ccc(S(=O)(=O)n2cc(C3CCCCC3)nn2)cc1` [HHS-166, 4-Cyclohexyl-1-((4-methoxyphenyl)sulfonyl)-111-1,2,3-triazole], for which the “liganding of HNRPK Y72 (in words)” value in test [1] is recorded as “not”. Moreover, the “dose dependence of SG inhibition (in words)” value in test [2] (1-25 μM) is reported as “dose-dependent inhibition; also recorded: dose-dependent effects on SG formation”. In addition, the EC50 in test [2] (Homo sapiens, in situ, 1-25 μM, n=2, read-out: EC50 for induced SG inhibition) stood at 8 µM. Besides, in test [2] (Homo sapiens, p<0.001, read-out: concentration giving statistically significant decrease in SG formation), the minimal effective concentration is at least 12.5 µM.

Source of the values: US20260294874A1, “COMPOSITIONS COMPRISING MODULATORS OF RIBONUCLEOPROTEIN GRANULE FORMATION AND DISSOLUTION AND METHODS OF USE THEREOF” (University of Virginia Patent Foundation, priority 2023, published 2026).
